Measured values reported in patent US9834559B2, “4-Amino-6-phenyl-5,6-dihydroimidazo[1,5-a]pyrazin-3(2H)-one derivatives as inhibitors of beta-secretase (BACE)” (Janssen Pharmaceutica NV, priority 2013, dated 2017).

Assays:
[1] = system: Abeta 1-42 produced and secreted by human neuroblastoma SKNBE2 cells expressing hAPP695; assay: Cellular αLisa assay in SKNBE2 cells, Abeta 1-42; format: cell-based; settings: 18 hours incubation, read-out: Cellular αLisa assay in SKNBE2 cells Abeta 42 pIC50 (converted)
Procedure: In two αLisa assays the levels of Abeta total and Abeta 1-42 produced and secreted into the medium of human neuroblastoma SKNBE2 cells are quantified. The assay is based on the human neuroblastoma SKNBE2 expressing the wild type Amyloid Precursor Protein (hAPP695). The compounds are diluted and added to these cells, incubated for 18 hours and then measurements of Abeta 1-42 and Abeta total are taken. Abeta total and Abeta 1-42 are measured by sandwich αLisa. αLisa is a sandwich assay using biotinylated antibody AbN/25 attached to streptavidin coated beads and antibody Ab4G8 or cAb42/26 conjugated acceptor beads for the detection of Abeta total and Abeta 1-42 respectively. In the presence of Abeta total or Abeta 1-42, the beads come into close proximity. The excitation of the donor beads provokes the release of singlet oxygen molecules that trigger a cascade of energy transfer in the acceptor beads, resulting in light emission. Light emission is measured after 1 hour incubation (excitation at […] and emission at 615 nm).
A best-fit curve is fitted by a minimum sum of squares method to the plot of % Controlmin versus compound concentration. From this an IC50 value (inhibitory concentration causing 50% inhibition of activity) can be obtained. • LC=Median of the low control values • =Low control: cells preincubated without compound, without biotinylated Ab in the αLisa • HC=Median of the High control values • =High Control: cells preincubated without compound • % Effect=100−[(sample−LC)/(HC−LC)*100] • % Control=(sample/HC)*100 • % Controlmin=(sample−LC)/(HC−LC)*100

[2] = system: brain levels of soluble Aβ40 and Aβ42; assay: In vivo Aβ lowering, brain levels of soluble Aβ by MSD electrochemiluminescence; design: species or system mouse; settings: untreated control = 100
Source text: To determine whether acute administration of an Aβ lowering agent would reduce Aβ levels in vivo, non-transgenic rodents, e.g. mice or rats were used. Animals treated with the Aβ lowering agent were examined and compared to those untreated or treated with vehicle and brain levels of soluble Aβ42, Aβ40, Aβ38, and Aβ37 were quantitated by Meso Scale Discovery's (MSD) electrochemiluminescence detection technology. Treatment periods varied from hours (h) to days and were adjusted based on the results of the Aβ lowering once a time course of onset of effect could be established.
A typical protocol for measuring Aβ lowering in vivo is shown but it is only one of many variations that could be used to optimize the levels of detectable Aβ. For example, Aβ lowering compounds were formulated in 20% of Captisol® (a sulfo-butyl ether of β-cyclodextrin) in water or 20% hydroxypropyl β cyclodextrin. The Aβ lowering agents were administered as a single oral dose or by any acceptable route of administration to overnight fasted animals. After 4 h, the animals were sacrificed and Aβ levels were analysed.
Blood was collected by decapitation and exsanguinations in EDTA-treated collection tubes. Blood was centrifuged at 1900 g for 10 minutes (min) at 4° C. and the plasma recovered and flash frozen for later analysis. The brain was removed from the cranium and hindbrain. The cerebellum was removed and the left and right hemisphere were separated. The left hemisphere was stored at −18° C. for quantitative analysis of test compound levels. The right hemisphere was rinsed with phosphate-buffered saline (PBS) buffer and immediately frozen on dry ice and stored at −80° C. until homogenization for biochemical assays.
Mouse brains from non-transgenic animals were resuspended in 8 volumes of 0.4% DEA (diethylamine)/50 mM NaCl containing protease inhibitors (Roche-11873580001 or 04693159001) per gram of tissue, e.g. for 0.158 g brain, add 1.264 ml of 0.4% DEA. All samples were homogenized in the FastPrep-24 system (MP Biomedicals) using lysing matrix D (MPBio #6913-100) at 6 m/s for 20 seconds. Homogenates were centrifuged at 20800×g for 5 min and supernatants collected. Supernatants were centrifuged at 221.300×g for 50 min. The resulting high speed supernatants were then transferred to fresh eppendorf tubes. Nine parts of supernatant were neutralized with 1 part 0.5 M Tris-HCl pH 6.8 and used to quantify Aβ.
To quantify the amount of Aβ42, Aβ40, Aβ38, and Aβ37 in the soluble fraction of the brain homogenates, simultaneous specific detection of Aβ42, Aβ40, Aβ38, and Aβ37 was performed using MSD's electro-chemiluminescence multiplex detection technology. In this assay purified monoclonal antibodies specific for Abeta37 (JRD/Aβ37/3), Abeta38 (J&JPRD/Aβ38/5), Abeta40 (JRF/cAβ40/28), and Abeta42 (JRF/cAβ42/26) were coated on MSD 4-plex plates. Briefly, the standards (a dilution of synthetic Aβ42, Aβ40, Aβ38, and Aβ37) were prepared in 1.5 ml Eppendorf tube in Ultraculture, with final concentrations ranging from 10000 to 0.3 pg/m. The samples and standards were co-incubated with Sulfo-tag labelled JRF/rAβ/2 antibody to the N-terminus of Aβ as detector antibody. 50 μl of conjugate/sample or conjugate/standards mixtures were then added to the antibody-coated plate. The plate was allowed to incubate overnight at 4° C. in order to allow formation of the antibody-amyloid complex. Following this incubation and subsequent wash steps the assay was finished by adding read buffer according to the manufacturer's instructions (Meso Scale Discovery, Gaitherburg, Md.).
The SULFO-TAG emits light upon electrochemical stimulation initiated at the electrode. MSD Sector instrument SI6000 was used for signal read-out.
The results are shown in Table 7 (value for untreated animals as control (Ctrl) was set at 100): […]

[3] = dose 10, s.c., 2 h after administration
[4] = dose 10, s.c., 4 h after administration
[5] = dose 10, p.o., 4 h after administration

SMILES | IC50 [1] [nM] | Aβ40 (% vs Ctrl)_Mean [2, 3] [% vs Ctrl] | Aβ42 (% vs Ctrl)_Mean [2, 3] [% vs Ctrl] | Aβ40 (% vs Ctrl)_Mean [2, 4] [% vs Ctrl] | Aβ42 (% vs Ctrl)_Mean [2, 4] [% vs Ctrl] | melting point [°C] | Aβ40 (% vs Ctrl)_Mean [2, 5] [% vs Ctrl] | Aβ42 (% vs Ctrl)_Mean [2, 5] [% vs Ctrl]
Cn1cc2n(c1=O)C[C@@](C)(c1cc(NC(=O)c3ccc(C#N)cn3)ccc1F)N=C2N [Compound 1, N-{3-[(6R)-8-Amino-2,6-dimethyl-3-oxo-2,3,5,6-tetrahydroimidazo[1,5-a]pyrazin-6-yl]-4-fluorophenyl}-5-cyanopyridine-2-carboxamide] | 13.2 | 105 | 105 | 132 | 109 |  |  | 
Cn1cc2n(c1=O)C[C@@](C)(c1cc(NC(=O)c3ccc(Cl)cn3)ccc1F)N=C2N [Compound 4, N-{3-[(6R)-8-amino-2,6-dimethyl-3-oxo-5H-imidazo[1,5-a]pyrazin-6-yl]-4-fluoro-phenyl}-5-chloro-pyridine-2-carboxamide] | 6.31 |  |  | 121 | 125 | 214.8 |  | 
Cc1nc(C(=O)Nc2ccc(F)c([C@]3(C)Cn4c(cn(C)c4=O)C(N)=N3)c2)co1 [Compound 3, N-{3-[(6R)-8-Amino-2,6-dimethyl-3-oxo-2,3,5,6-tetrahydroimidazo[1,5-a]pyrazin-6-yl]-4-fluorophenyl}-2-methyl-1,3-oxazole-4-carboxamide] | 57.5 |  |  |  |  |  | 94 | 97
